Data on one substance can be found in patent US7223718B2, “Enhanced glyphosate herbicidal concentrates” (Falcon Lab LLC, priority 2005, dated 2007).

A short description of this data set: Hygroscopicity: exposure to air on a balance for three days. Format: physicochemical. The following applies: exposed to air on a balance. From the text: A mechanical mixture of 10 gm. of dry, solid isopropylammonium glyphosate and 20 gm. of dry, solid ammonium pelargonate was made by thoroughly grinding and mixing the two solids to assure a homogeneous powder. The resulting 30 gm. was exposed to the air in a weighing dish on a balance to determine if the mixture was hygroscopic or dry. […] To this mixture was further added 3 gm. of powdered 85% potassium hydroxide and the solids again thoroughly mixed. This solid mixture contained the equivalent of 30% isopropylammonium glyphosate and 60% ammonium pelargonate, being a solid enhanced glyphosate herbicide concentrate.
A 50 gm. portion of a 53.8% glyphosate solution as the isopropylammonium salt (Monsanto Aquamaster®) was placed in a glass shallow evaporating dish. To this was added 10 gm. of 28-30% ammonium hydroxide and the solution thoroughly mixed by slowly tilting the dish. The dish was then exposed to air at ambient conditions for 2 weeks during which time the water evaporated off leaving a white crystalline solid weighing 38.9 gm. […] By the method it was prepared and the yield obtained it was determined to be the mixed salt ammonium, (isopropylammonium)glyphosate. The melting point was 200-205° C. (isopropyl ammonium glyphosate melts at 155-158° C.) The FT-IR spectrum in KBr is: […]

For ammonium, (isopropylammonium)glyphosate, the “Hygroscopicity (weight change on exposure to air)” value is given as “non-hygroscopic”.
